Reference: ChEMBL document CHEMBL3351365, “Short oligonucleotide prodrug having 5-fluoro and 5-iodouracil inhibits the proliferation of cancer cells in a photo-responsive manner” (Bioorg Med Chem Lett, 2014)

Assay: Retention time of the compound treated with FU'U ODN by HPLC analysis
Assay type: physicochemical

Retention_time: 19 min
SMILES: O=c1[nH]c(=O)n([C@H]2C[C@H](O)[C@@H](CO)O2)cc1F [FLOXURIDINE]
